Measurements: patent publication US8383637B2, “2-amino-quinazoline derivatives useful as inhibitors of β-secretase (BACE)” (Jansssen Pharmaceutica N.V., priority 2004, dated 2013)
“And” between values parts separate entries of the source, which are not always exact repeats. Identical values can stand only once. Like-named read-outs stand apart in the source and are kept apart here.

What was measured:
Assay type in all cases: biochemical
β-secretase(BACE) [1] = molecular target: T1, β-secretase(BACE) (Homo sapiens, UniProt P56817); test: BACE % Inhibition Assay ((Aedens)-[…]-(Dabcyl K-amide) substrate); details: % error ±10%
T1 construct: purchased Panvera
T1 sequence (P56817 46-501): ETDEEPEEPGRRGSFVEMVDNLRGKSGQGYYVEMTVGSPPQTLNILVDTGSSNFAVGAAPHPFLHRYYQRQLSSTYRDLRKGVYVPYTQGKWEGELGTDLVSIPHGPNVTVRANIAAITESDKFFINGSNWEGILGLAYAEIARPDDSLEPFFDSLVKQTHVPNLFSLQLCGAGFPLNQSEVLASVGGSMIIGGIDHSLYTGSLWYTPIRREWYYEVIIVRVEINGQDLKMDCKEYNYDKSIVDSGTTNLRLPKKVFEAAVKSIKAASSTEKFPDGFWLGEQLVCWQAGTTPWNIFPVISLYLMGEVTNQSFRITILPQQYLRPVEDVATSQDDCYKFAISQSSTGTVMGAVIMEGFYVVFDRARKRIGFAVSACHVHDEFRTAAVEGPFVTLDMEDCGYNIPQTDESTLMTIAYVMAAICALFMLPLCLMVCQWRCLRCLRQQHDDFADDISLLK
Procedure: The substrate stock solution was prepared in DMSO as a 10 mg/mL solution. The substrate working solution was prepared by diluting the 10 mg/mL stock solution with substrate assay buffer to a final concentration of 300 μg/mL. The β-secretase (BACE) working solution was prepared by diluting a 0.83 mg/mL BACE stock solution with enzyme assay buffer to a final concentration of 4 μg/mL.
Test compounds were dissolved in DMSO to 10 mM.
The screening procedure for this assay was as follows: 15 μL of BACE working solution was pipetted into each well of a 96-well plate. To each well was then pipetted 2 μL of test compound at the selected concentration. Test compound and BACE were then mixed with a pipettor and incubated for 20 min at room temperature. To each well was then added 10 μL of the substrate working solution. The plates were then incubated for 1 hour at room temperature.
The procedure for the blank was as follows. 15 μL of assay buffer was pipetted into each well to be used as a blank control. To each well was then added 2 μL of vehicle and 10 μL of substrate working solution. The plates were then incubated for 1 hour at room temperature.
The procedure for the positive control was as follows: 15 μl of BACE working solution was pipetted into each well to be used as a positive control. To each well was then pipetted 2 μL of vehicle. Vehicle and BACE were then mixed with a pipettor and incubated for 20 min at room temperature. To each well was then added 10 μL of the substrate working solution. The plates were then incubated for 1 hour at room temperature.
For test compounds, % inhibition was determined at each concentration as follows: […]

β-secretase(BACE) [2] = molecular target: T1, β-secretase(BACE); test: BACE Assay-1 (MCA-substrate, IC50)
Outline: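 Human BACE (work solution 10 μg/mL) with MCA-peptide substrate (stock 2.0 mg/mL) in 0.05 M citrate buffer, pH 5.0, with PEG8000. Fluorescence read at T0 and T60; compounds tested at multiple concentrations and IC50 calculated from these readings.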

β-secretase(BACE) [3] = molecular target: T1, β-secretase(BACE); test: BACE Assay-2 (FS1 substrate, IC50 and Ki); details: procedure of Example 159, FS1 substrate
β-secretase(BACE) [4] = molecular target: T1, β-secretase(BACE); test: BACE FS1% Inhibition Assay; details: FS1 substrate; for inhibition at 3 µM / % Inhibition (FS) 3 μM: 3 μM test compound; for inhibition at 3 µM: read-out: % Inhibition (FS) 3 μM; for inhibition at 10 µM: 10 μM test compound, read-out: % Inhibition (FS) 10 μM; for inhibition at 0.3 µM / % Inhibition (FS) 0.3 μM: 0.3 μM test compound; for inhibition at 0.3 µM: read-out: % Inhibition (FS) 0.3 μM; for inhibition at 1 µM / % Inhibition (FS) 1 μM: 1 μM test compound; for inhibition at 1 µM: read-out: % Inhibition (FS) 1 μM
Outline: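 Human BACE (4 μg/mL working solution) preincubated 20 min at room temperature with compound, then FS1 substrate (300 μg/mL working solution) added and incubated 1 h at room temperature. Percent inhibition calculated at each compound concentration against blank and vehicle controls.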

[5] = procedure of Example 158, read-out: IC50 μM (158)

| IC50 (β-secretase(BACE) [2]; [5]) [µM] | Ki (β-secretase(BACE) [3]; read-out: Ki μM (159)) [µM] | inhibition at 3 µM (β-secretase(BACE) [4]) [%] | inhibition at 0.3 µM (β-secretase(BACE) [4]) [%] | inhibition at 1 µM (β-secretase(BACE) [4]) [%] | SMILES | also measured |
| --- | --- | --- | --- | --- | --- | --- |
|  |  |  |  |  | CN(C(=O)[C@@H]1CCCN1C(=O)CN1Cc2cc(Oc3ccccc3)ccc2N=C1N)C1CCCCC1 [Compound 88] | % Inhibition (β-secretase(BACE) [1]; 3 μM test compound): <30%; % Inhibition (β-secretase(BACE) [1]; 10 μM test compound): <30% |
| 0.19 | 0.17 | 101 |  |  | CCCCC(CC)C(=O)NCCN1Cc2cc(Oc3ccccc3)ccc2N=C1N (stereo not shown) [Compound 122] | inhibition at 10 µM (β-secretase(BACE) [4]): 123% |
| 0.011 | 0.019 | 121 | 97 | 112 | CC(C)[C@H](CCC(=O)N(C)C1CCCCC1)N1Cc2cc(Oc3ccccc3)ccc2N=C1N [Compound 450] |  |
| 0.15 | 0.21 |  |  |  | CC(C)C(=O)NCC(C1CCCCC1)N1Cc2cc(Oc3ccccc3)ccc2N=C1N (stereo not shown) [Compound 301] | % Inhibition (FS) 0.3 μM (β-secretase(BACE) [4]): <30%; % Inhibition (FS) 1 μM (β-secretase(BACE) [4]): 82%; % Inhibition (FS) 3 μM (β-secretase(BACE) [4]): 106% |
| 0.19 | 0.11 | 107 | 50 | 93 | NC1=Nc2ccc(Oc3ccccc3)cc2CN1CCC(=O)NC1CCCCC1 [Compound 178] |  |
| 0.25 | 0.1 | 106 | < 30 | 75 | C[C@H](CNC(=O)C1CCCCC1)N1Cc2cc(Oc3ccccc3)ccc2N=C1N [Compound 495, (R)-Enantiomer of cyclohexanecarboxylic acid [2-(2-amino-6-phenoxy-4H-quinazolin-3-yl)-propyl]-amide] |  |
| 0.066 | 0.12 | 109 | < 30 | 76 | CN(C(=O)CCC(c1ccc(Cl)cc1)N1Cc2cc(Oc3ccccc3)ccc2N=C1N)C1CCCCC1 (stereo not shown) [Compound 297] |  |
| 1.2 | 0.3 | 71 |  |  | NC1=Nc2ccc(Oc3ccccc3)cc2CN1CCNC(=O)C1CC1 [Compound 123] | inhibition at 10 µM (β-secretase(BACE) [4]): 116% |
| 0.16 | 0.18 | 79 |  |  | CCCC(CCC(=O)N(CC)C1CCCCC1)N1Cc2cc(Oc3ccccc3)ccc2N=C1N (stereo not shown) [Compound 127] | inhibition at 10 µM (β-secretase(BACE) [4]): 102% |
| 0.058 | 0.08 | 109 | 80 | 104 | CN(C(=O)c1cccc(CN2Cc3cc(-c4ccccc4O)ccc3N=C2N)c1)C1CCCCC1 [Compound 169] |  |
| 0.15 | 0.21 | 112 | 53 | 86 | CN(C(=O)c1cccc(CN2Cc3cc(-c4ccccc4Cl)ccc3N=C2N)c1)C1CCCCC1 [Compound 260] |  |
| 0.13 | 0.1 | 114 | 75 | 101 | CC1CCCCC1C(=O)NCCN1Cc2cc(Oc3ccccc3)ccc2N=C1N (stereo not shown) [Compound 218] |  |
| 0.23 | 0.4 | 106 | 39 | 71 | NC1=Nc2ccc(Oc3ccccc3)cc2CN1CCNC(=O)NC1CCCCC1 [Compound 215] |  |
| 0.11 | 0.1 | 109 | 67 | 96 | CN(C(=O)c1cccc(CN2Cc3cc(-c4ccsc4)ccc3N=C2N)c1)C1CCCCC1 [Compound 164] |  |
| 0.19 | 0.28 | 101 | < 30 | 72 | COc1cccc(-c2ccc3c(c2)CN(Cc2cccc(C(=O)N(C)C4CCCCC4)c2)C(N)=N3)c1 [Compound 165] |  |
| 0.1 | 0.17 | 115 |  |  | NC1=Nc2ccc(Oc3ccccc3)cc2CN1CCNC(=O)C12CC3CC(CC(C3)C1)C2 [Compound 131] | inhibition at 10 µM (β-secretase(BACE) [4]): 130% |
| 0.023 | 0.06 | 114 | 98 | 113 | CN(C(=O)c1cccc(CN2Cc3cc(-c4ccccc4)ccc3N=C2N)c1)C1CCCCC1 [Compound 138] |  |
| 0.02 | 0.05 |  |  |  | NC1=Nc2ccc(Oc3ccccc3)cc2CN1C(CNC(=O)CC1CCCC1)C1CCCCC1 (stereo not shown) [Compound 311] | % Inhibition (FS) 0.3 μM (β-secretase(BACE) [4]): 74%; % Inhibition (FS) 1 μM (β-secretase(BACE) [4]): 108%; % Inhibition (FS) 3 μM (β-secretase(BACE) [4]): 118% |
| 0.36 | 0.26 | 93 | 38 | 44 | COc1ccccc1-c1ccc2c(c1)CN(CCNC(=O)C1CCCCC1)C(N)=N2 [Compound 487] | % Inhibition (FS) 0.3 μM (β-secretase(BACE) [4]; 0.3 µM): <30%; % Inhibition (FS) 1 μM (β-secretase(BACE) [4]; 1 µM): 32%; % Inhibition (FS) 3 μM (β-secretase(BACE) [4]; 3 µM): 95% |
| 0.018 | 0.011 | 129 | 112 | 119 | CC(C)CCC(=O)NC[C@@H](C(C)C)N1Cc2cc(Oc3ccccc3)ccc2N=C1N [Compound 564] |  |
| 0.089 | 0.1 | 110 | < 30 | 86 | CN(C(=O)c1cccc(CN2Cc3cc(-c4ccccc4CC#N)ccc3N=C2N)c1)C1CCCCC1 [Compound 325] |  |
| 0.58 | 0.32 | 103 |  |  | CC(C)C(=O)NCCN1Cc2cc(Oc3ccccc3)ccc2N=C1N [Compound 121] | inhibition at 10 µM (β-secretase(BACE) [4]): 117% |
| 0.31 | 0.17 | 108 | 51 | 85 | COC1CCCC(C(=O)NCCN2Cc3cc(Oc4ccccc4)ccc3N=C2N)C1 (stereo not shown) [Compound 219] |  |
| 0.19 | 0.1 | 101 | < 30 | 70 | NC1=Nc2ccc(Oc3ccccc3)cc2CN1CCNC(=S)NC12CC3CC(CC(C3)C1)C2 [Compound 214, 1-Adamantan-1-yl-3-[2-(2-amino-6-phenoxy-4H-quinazolin-3-yl)-ethyl]-thiourea] |  |
| 0.015 | 0.11 | 120 | 65 | 96 | NC1=Nc2ccc(Oc3ccccc3)cc2CN1CCNC(=O)C1(c2ccc(Cl)cc2)CCCC1 [Compound 196] |  |
| 0.25 | 0.25 | 97 | < 30 | 66 | CN(C(=O)c1cccc(CN2Cc3cc(-c4c(Cl)cccc4Cl)ccc3N=C2N)c1)C1CCCCC1 [Compound 259] |  |
| 0.89 | 0.29 | 89 |  |  | CCCCS(=O)(=O)NCCN1Cc2cc(Oc3ccccc3)ccc2N=C1N [Compound 135, Butane-1-sulfonic acid [2-(2-amino-6-phenoxy-4H-quinazolin-3-yl)-ethyl]-amide] | inhibition at 10 µM (β-secretase(BACE) [4]): 118% |
| 0.89 | 0.28 | 92 | 34 | 65 | Cc1noc(C)c1-c1ccc2c(c1)CN(Cc1cccc(C(=O)N(C)C3CCCCC3)c1)C(N)=N2 [Compound 159] |  |
| 0.062 | 0.24 | 109 | < 30 | 70 | CCCCC(CC)C(=O)NCC(C1CCCCC1)N1Cc2cc(Oc3ccccc3)ccc2N=C1N (stereo not shown) [Compound 303] |  |

| SMILES | IC50 (β-secretase(BACE) [2]; [5]) [µM] | Ki (β-secretase(BACE) [3]; read-out: Ki μM (159)) [µM] | inhibition at 3 µM (β-secretase(BACE) [4]) [%] | inhibition at 0.3 µM (β-secretase(BACE) [4]) [%] | inhibition at 1 µM (β-secretase(BACE) [4]) [%] | also measured |
| --- | --- | --- | --- | --- | --- | --- |
| NC1=Nc2ccc(Oc3ccccc3)cc2CN1CCC(=O)NC1C2CC3CC(C2)CC1C3 (stereo not shown) [Compound 221, N-Adamantan-2-yl-3-(2-amino-6-phenoxy-4H-quinazolin-3-yl) propionamide] | 0.011 |  | 118 | 100 | 115 | IC50 (β-secretase(BACE) [2]): 0.023 µM; Ki (β-secretase(BACE) [3]; Ki μM (159)): 0.025 µM and 0.029 µM; % Inhibition (FS) 0.3 μM (β-secretase(BACE) [4]; 0.3 µM): 110%; % Inhibition (FS) 1 μM (β-secretase(BACE) [4]; 1 µM): 119%; % Inhibition (FS) 3 μM (β-secretase(BACE) [4]; 3 µM): 121% |
